Key:
SHR rat = assay: Inattention in SHR rat, Y-shaped maze test; assay type: in vivo; conditions: oral, 1 mg/kg
Method: It is known that a SHR rat has a lower spontaneous alternation behavior ratio than a WKY rat which is a background animal through the Y-shaped maze test. Thus, the SHR rat was pretreated with the present compound to evaluate the pharmacological effect of the present compound on attention function. Specifically, a 4-week-old SHR rat received the oral administration of the present compound, and a spontaneous alternation behavior ratio in the rat was measured for 8 minutes from 30 minutes after the administration. The improved spontaneous alternation behavior ratio (%) was calculated as a numerical value on the basis of the spontaneous alternation behavior ratio in the vehicle administration group. In this study, a Y-shaped maze device (black acrylic: 450 mm×100 mm×350 mm, Horikawa Manufacturing Co., Ltd.) was used.

[1] = target: T1, Human dopamine D4 receptor (Homo sapiens, UniProt P21917); assay: G protein independent pathway: β-arrestin recruit ability (PathHunter β-galactosidase); assay type: cell-based; parameters: expressed in transfected cells; conditions: β-arrestin recruitment, 90 minutes; 10 μM dopamine = 100%
T1 sequence (P21917 1-419): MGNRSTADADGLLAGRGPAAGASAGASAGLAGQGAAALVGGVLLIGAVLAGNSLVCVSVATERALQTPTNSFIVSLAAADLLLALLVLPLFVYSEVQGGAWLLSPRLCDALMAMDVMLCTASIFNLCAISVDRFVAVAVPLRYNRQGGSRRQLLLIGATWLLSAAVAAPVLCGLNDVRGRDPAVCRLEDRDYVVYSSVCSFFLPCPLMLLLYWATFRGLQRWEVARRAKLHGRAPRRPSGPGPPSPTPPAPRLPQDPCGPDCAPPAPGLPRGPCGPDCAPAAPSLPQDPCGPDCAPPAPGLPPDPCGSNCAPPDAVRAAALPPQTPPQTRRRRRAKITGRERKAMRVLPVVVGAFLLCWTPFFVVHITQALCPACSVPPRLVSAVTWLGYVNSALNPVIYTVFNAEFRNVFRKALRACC
Method: The activation of the G protein independent pathway was evaluated on the basis of the recruit ability of β-arrestin as follows. Cell lines transfected with D4 receptor genes were seeded in a 384-well plate, and incubated in a CO2 incubator at 37° C. for 24 hours, a solution of the present compound in DMSO was added into the cells, and then the cells were left at 37° C. for 90 minutes. Buffer containing β-galactosidase reaction substance (PathHunter Cell Assay Buffer, DiscoverRx) was added thereto, and luminescent signals in the wells were measured with a FDSS (Hamamatsu Photonics K.K.). […] The maximal activity (Emax) of the present compound was calculated according to the measured luminescent signals. EC50 value was calculated as the concentration of the present compound required to achieve a 50 response.

[2] = PK study in rat (bioavailability); assay type: in vivo; conditions: plasma, oral vs intravenous administration
Method: In this study, the pharmacokinetics of the present compound can be evaluated. Specifically, a 7-week-old SD-type or WKY-type rat received the intravenous administration of a solution of the present compound in saline or the oral administration of a suspension of the present compound in carboxymethylcellulose or methylcellulose. Blood was collected from the rat at each time below.
Intravenous administration: 5 minutes, 15 minutes, 30 minutes, 1 hour, 2 hours, 4 hours, 6 hours, and 24 hours after administration
Oral administration: 15 minutes, 30 minutes, 1 hour, 2 hours, 4 hours, 6 hours, and 24 hours after administration
Plasma was collected from the blood, the levels of the present compound in the plasma were measured by a LC-MS method, and then the pharmacokinetic parameters were calculated on the basis of the level changes.

[3] = test system: rat after prenatal exposure to valproic acid; assay: Social impairments in rat after prenatal exposure to valproic acid, three-chamber test; assay type: in vivo; conditions: oral, 1 mg/kg
Text: A rat exposed to valproic acid on the 12.5 days of fetal life has been widely used as an autistic rat model with high validity. It is known that the rat has a social cognitive disorder through the three-chamber test which is a test for evaluating sociability. Thus, the rat was pretreated with the present compound to evaluate the improved effect of the present compound on social cognition. In this study, a sociability cage (600 mm×400 mm×220 mm, Muromachi Kikai Co., Ltd.) was used. Specifically, a 3-week-old rat after prenatal exposure to valproic acid received the oral administration of the present compound, and the time that the rat stayed in close to another rat side or a novel object was measured for 10 minutes from 30 minutes after the administration. The ratio of the time for another rat side to the time for a novel object that is defined as 100% was calculated to evaluate the improvement ratio (%) of the present compound on the basis of the result of the vehicle-treated group. The improvement ratio after the oral administration of the compound of Example 5 (1 mg/kg) was 27.6%.

Structure (SMILES) | spontaneous alternation behavior ratio (SHR rat) | Maximal activity on D4 receptor (%) [1] | bioavailability [2] | time that the rat stayed in close to another rat side [3] | improvement ratio (%) ([3]; time for another rat side vs novel object, relative to vehicle)
Cc1ncc(CN2CCC(c3ccccn3)CC2)c(N)n1 [Example 5, 2-Methyl-5-[4-(pyridin-2-yl)piperidin-1-ylmethyl]pyrimidin-4-amine] | significantly improved | 11% | 16.8% | significantly increased | 27.6%
Cc1ncc(CN2CCC(c3cncc(F)c3)CC2)cn1 [Example 33, 5-[4-(5-Fluoropyridin-3-yl)piperidin-1-ylmethyl]-2-methylpyrimidine] | – | 21% | 60.1% | – | –
Nc1ncc(CN2CCC(c3cccnc3)CC2)cn1 [Example 37] | – | 9% | 81.7% | – | –

— patent publication US9732065B2, “Cyclic aminomethyl pyrimidine derivative” (Sumitomo Dainippon Pharma Co., Ltd., priority 2013, dated 2017)
